Key:
[1] = molecular target: Bacteroids fragilis O-GlcNAcase (Bacteroides fragilis, UniProt Q5L8V6); assay: Michaelis-Menten/Lineweaver-Burk kinetic inhibition of O-GlcNAcase with 4MU-NAG substrate; type: biochemical; settings: for Selectivity (KI O-GlcNAcase/KI HEX): Bacteroids fragilis O-GlcNAcase over human HEX B, Table 1
Description: Bacteroids fragilis O-GlcNAcase, which is highly homologous to human O-GlcNAcase, was prepared as follows. Based on the genome sequence of B. fragilis (NCTC 9343) as disclosed in GenBank accession no. CR626927 (Oct. 23, 2008), a DNA fragment encoding the B. fragilis O-GlcNAcse was amplified via polymerase chain reaction (PCR), using the primers of: 5′-[…]-3′ (SEQ ID NO:1) (forward primer) and 5′-[…]-3′ (SEQ ID NO:2) (reverse primer). The PCR product was cloned into pGEM-T Easy vector (Promega) via cloning sites Nde1 and Xho1 and then subcloned into pET21b vector to produce expression plasmid pOGA, which encodes a fusion protein including O-GlcNAcase and a His6 tag at the C-terminus
Plasmid pOGA was transformed into E. coli BL21 (DE3) cells and a positive transformant was cultured in Luria-Bertani (LB) medium with ampicillin (100 μg/mL) overnight. The E. coli culture, transferred to fresh LB medium, was incubated at 37° C. and, when A600 of the culture reached 0.6, isopropyl-β-D-thiogalactopyranoside (final conc: 250 μM) was added to induce expression of O-GlcNAcse. The induced cells were further cultured at 16° C. overnight, harvested, and disrupted to produce a cell lysate. Upon centrifugation, the supernatant thus obtained was loaded onto a nickel-affinity column. After elution, a fraction containing O-GlcNAcse was collected and the enzyme contained therein was further purified by gel filtration using a Superdex 6 column. See Dennis et al., Nat Struct Mol Biol 2006, 13: 365-71. The purified protein was concentrated using a 10 kDa-cutoff concentrator and dialyzed against 20 mM HEPES (pH 7.5).
The reaction conditions for each enzyme are shown below:
O-GlcNAcase: reaction mixture (0.5 nM O-GlcNAcase (200 μL) in 50 mM citric acid, 100 mM NaCl, 0.1% BSA, 0.05-1.5 mM substrate, pH 4.25) was incubated at 30° C. for 25 minutes. The enzyme activity at different time points was determined by measuring the levels of the fluorescent signals (excitation wavelength: 360 nm; emission wavelength: 460 nm) released from 4-methylumbelliferone, a product of the enzyme reaction.
(§1) In these reactions, the substrate concentrations were three to five fold of the concentration used for determining KM (absent compounds) and the ratio between the enzyme and the compound was 0.1-0.5 nM to 0.3 nM-200 uM. The data thus obtained were analyzed by the Lineweaver-Burk plot. The K1 values were determined by the double reciprocal plot (1/V vs. 1/[S]). More specifically, the Km values for each enzyme in the presence of one of the test compounds first determined and these values were further plotted in view of the concentrations of the compound. K1 was determined by calculating the negative value of the resulting x-intercept. The selectivity of each compound was calculated by the formula: K1 O-GlcNAcase/K1 Hex B.

Human HEX B = molecular target: T1, Human HEX B (Homo sapiens, UniProt P07686); assay: Michaelis-Menten/Lineweaver-Burk kinetic inhibition of Hex B with 4MU-NAG substrate; type: biochemical
T1 construct: Hex B protein (isolated from human placenta) was purchased from Sigma Co; purchased Sigma Co; host or cells: human placenta
Description: Hex B protein (isolated from human placenta) was purchased from Sigma Co.
Both O-GlcNAcase and Hex B were subjected to Michaelis-Menton kinetic analysis to determine the kinetics of their enzymatic activity in the presence of absence of Compounds 1-5 and Compound ix, using 4-methylumbelliferyl-N-acetyl-β-D-glucosaminide (4MU-NAG; purchased from Sigma Co.) as the substrate (a fluorogenic substrate). The reaction conditions for each enzyme are shown below:
Hex B: reaction mixture (0.1 nM Hex B (200 μL), 50 mM NaH2PO4, 100 mM NaCl, 0.1% BSA, 0.05-1.5 mM substrate, pH 6.5) was incubated at 30° C. for 25 minutes. The reaction was terminated by addition of a 3× quenching buffer (200 mM sodium glycine buffer, pH 10.8). The enzyme activity was determined as described above.
as §1, with “To determine the effects of Compounds 1-5 and Compound ix on the kinetics of both enzymes, the enzyme reactions described above were performed in the presence of each compound at different concentrations. In” for “In”

Human O-GlcNAcase = molecular target: T2, Human O-GlcNAcase (Homo sapiens, UniProt O60502); assay: Inhibition of human O-GlcNAcase; type: biochemical; settings: Table 2; for Selectivity (KI O-GlcNAcase/KI HEX): Human O-GlcNAcase over human HEX B; for Ki: Human O-GlcNAcase
T2 construct: made in house
T2 sequence (O60502 1-916): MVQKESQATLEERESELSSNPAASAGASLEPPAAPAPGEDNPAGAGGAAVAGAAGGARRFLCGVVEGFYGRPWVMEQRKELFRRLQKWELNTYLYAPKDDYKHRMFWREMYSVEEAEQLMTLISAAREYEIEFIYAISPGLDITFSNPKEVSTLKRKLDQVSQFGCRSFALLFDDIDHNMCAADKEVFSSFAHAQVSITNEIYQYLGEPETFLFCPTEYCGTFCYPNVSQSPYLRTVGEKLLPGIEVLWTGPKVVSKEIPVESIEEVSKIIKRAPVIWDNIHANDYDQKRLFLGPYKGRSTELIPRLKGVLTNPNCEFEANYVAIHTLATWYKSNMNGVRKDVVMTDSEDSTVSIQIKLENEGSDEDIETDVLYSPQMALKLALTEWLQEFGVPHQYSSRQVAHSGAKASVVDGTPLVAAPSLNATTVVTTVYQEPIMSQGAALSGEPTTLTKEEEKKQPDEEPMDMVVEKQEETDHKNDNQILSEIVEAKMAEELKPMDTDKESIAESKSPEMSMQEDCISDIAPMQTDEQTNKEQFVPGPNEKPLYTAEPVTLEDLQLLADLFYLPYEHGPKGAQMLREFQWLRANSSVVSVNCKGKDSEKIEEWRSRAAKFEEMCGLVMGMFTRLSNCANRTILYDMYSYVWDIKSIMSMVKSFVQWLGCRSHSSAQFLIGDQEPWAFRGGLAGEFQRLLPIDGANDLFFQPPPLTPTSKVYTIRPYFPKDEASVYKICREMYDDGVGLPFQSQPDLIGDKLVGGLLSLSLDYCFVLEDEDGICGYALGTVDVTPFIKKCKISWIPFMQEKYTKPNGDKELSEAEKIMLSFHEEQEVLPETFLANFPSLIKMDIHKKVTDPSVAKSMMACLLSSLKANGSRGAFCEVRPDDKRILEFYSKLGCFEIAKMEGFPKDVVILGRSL
Description: Human O-GlcNAcase was also prepared and tested according to the procedures described in Gao et al., J. Biol. Chem. 2001, 276, 9838-9845 and Macauley et al., J. Am. Chem. Soc. 2005, 127, 17202-17203.

[2] = molecular target: T3, O-GlcNAcase in human 293T cells (Homo sapiens, UniProt O60502); assay: Level of protein-associated O-GlcNAc in treated 293T cells by Western blot; type: cell-based; settings: 10 μM, 16 hours, Western blot with anti-O-GlcNAc antibody, versus un-treated cells
T3 construct: endogenous in cells; host or cells: 293T cells
T3 sequence (O60502 1-916): T2 sequence (O60502 1-916)
Description: Additionally, Compounds 1 and 3 were tested to determine their inhibitory effects on O-GlcNAcase in human 293T cells. The cells were treated with 10 μM Compound 1 or 3 for 16 hours. The level of protein-associated O-GlcNAc moieties in the treated cells was determined by Western blot analysis using an anti-O-GlcNAc antibody. See Macauley et al., J. Biol. Chem. 2005, 280, 25313-25322. Two known O-GlcNAcase inhibitors, PUGNAc (10 μM) and STZ (10 μM), were used as positive controls (Hanover et al., Arch Biochem. Biophys. 1999, 362, 38-45 and Rao et al., EMBO J. 2006, 25, 1569-1578).

BV2 cells = assay: GM2 ganglioside level in BV2 cells by high performance thin-layer chromatography; type: cell-based, mouse; settings: 200 nM, 10 days, HPTLC
Description: Glycosphingolipids (e.g., GM2) were extracted from the treated cells with chloroform/methanol and the ganglioside levels were determined by high performance thin-layer chromatography.

T1 sequence (P07686 315-556 limits assumed): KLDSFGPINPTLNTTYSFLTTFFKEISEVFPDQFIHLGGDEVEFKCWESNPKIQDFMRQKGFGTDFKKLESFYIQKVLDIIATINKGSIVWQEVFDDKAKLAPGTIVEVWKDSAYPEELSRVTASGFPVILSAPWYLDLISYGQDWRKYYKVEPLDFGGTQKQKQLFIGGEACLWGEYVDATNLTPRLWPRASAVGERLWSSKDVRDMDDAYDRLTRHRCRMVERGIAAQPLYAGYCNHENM
T1 sequence (P07686 122-311 limits assumed): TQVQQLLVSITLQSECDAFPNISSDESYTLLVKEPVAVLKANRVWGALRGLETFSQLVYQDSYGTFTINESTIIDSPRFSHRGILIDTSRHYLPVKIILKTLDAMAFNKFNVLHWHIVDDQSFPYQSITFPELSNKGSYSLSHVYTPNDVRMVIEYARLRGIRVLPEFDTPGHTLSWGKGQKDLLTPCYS
T1 sequence (P07686 50-107 partner limits assumed): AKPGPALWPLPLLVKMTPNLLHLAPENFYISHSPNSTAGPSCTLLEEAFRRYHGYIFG
Chain of Bacteroids fragilis O-GlcNAcase (Q5L8V6 entry or part of it): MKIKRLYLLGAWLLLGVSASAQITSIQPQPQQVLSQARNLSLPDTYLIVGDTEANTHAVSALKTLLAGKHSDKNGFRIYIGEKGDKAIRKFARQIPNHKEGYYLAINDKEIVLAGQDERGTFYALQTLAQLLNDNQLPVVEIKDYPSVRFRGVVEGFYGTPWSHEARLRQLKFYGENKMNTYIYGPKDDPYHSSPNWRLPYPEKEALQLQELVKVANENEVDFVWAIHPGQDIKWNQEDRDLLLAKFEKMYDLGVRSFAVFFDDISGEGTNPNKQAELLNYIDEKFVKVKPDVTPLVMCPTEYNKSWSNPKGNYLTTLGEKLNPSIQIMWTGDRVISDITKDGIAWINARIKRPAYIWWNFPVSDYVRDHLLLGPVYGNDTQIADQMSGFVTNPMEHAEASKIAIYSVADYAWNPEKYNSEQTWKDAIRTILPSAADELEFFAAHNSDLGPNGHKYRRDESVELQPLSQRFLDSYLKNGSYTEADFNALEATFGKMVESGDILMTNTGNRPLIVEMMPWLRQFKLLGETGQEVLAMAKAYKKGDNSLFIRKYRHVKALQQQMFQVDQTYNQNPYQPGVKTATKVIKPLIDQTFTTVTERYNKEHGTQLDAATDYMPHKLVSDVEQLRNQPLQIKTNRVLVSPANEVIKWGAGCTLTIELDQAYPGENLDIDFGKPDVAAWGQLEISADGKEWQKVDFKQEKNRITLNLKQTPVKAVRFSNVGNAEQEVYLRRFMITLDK

| Structure (SMILES) | Ki [1] [µM] | Selectivity (KI O-GlcNAcase/KI HEX) [1] | Ki (Human HEX B; Table 1) [nM] | Ki (Human HEX B; Table 2) [nM] | Selectivity (KI O-GlcNAcase/KI HEX) (Human O-GlcNAcase) | Ki (Human O-GlcNAcase) [µM] | level of O-GlcNAc moieties in treated cells [2] | GM2 level in treated cells (BV2 cells) |
| --- | --- | --- | --- | --- | --- | --- | --- | --- |
| CC(=O)NC1CN(CCCCCCCN)C(CO)C(O)C1O [Compound 1, N-[1(7-Amino-heptyl)]-2-acetamido-1,2,5-trideoxy-1,5-imino-D-glucitol] | 75.3 ± 9.13 | 36,000 | 2.1 ± 0.38 | 2.1 ± 0.38 | 51,000 | 108 ± 9.17 | not significantly different than that in un-treated cells |  |
| COc1ccc(CNCCCCCCCN2CC(NC(C)=O)C(O)C(O)C2CO)cc1 (stereo not drawn) [Compound 2] | 72.1 ± 0.88 | 60,000 | 1.2 ± 0.23 | 1.2 ± 0.23 | 85,000 | 102 ± 6.47 |  |  |
| COc1ccc(CN(CCCCCCCN2CC(NC(C)=O)C(O)C(O)C2CO)Cc2ccc(OC)cc2)cc1 (stereo not drawn) [Compound 3] | 129 ± 2.55 | 190,000 | 0.69 ± 0.077 | 0.69 ± 0.077 | 250,000 | 176 ± 2.15 | not significantly different than that in un-treated cells | significantly increased |
| CC(=O)NC1CN(CCCCCCCN=[N+]=[N-])C(CO)C(O)C1O (stereo not drawn) [Compound 4] | 95.7 ± 8.37 | 56 | 1700 ± 560 | 1700 ± 560 | 91 | 155 ± 9.87 |  |  |
| CC(=O)N[C@H]1/C(=N/OC(=O)Nc2ccccc2)O[C@H](CO)[C@@H](O)[C@@H]1O [PUGNAc, reference compound] |  |  |  |  |  |  | notably increased | only modestly increased |
| CN(N=O)C(=O)N[C@@H]1[C@@H](O)[C@H](O)[C@@H](CO)O[C@@H]1O [STZ, reference compound] |  |  |  |  |  |  | notably increased |  |

Reference: patent US8466291B2, “1,5-dideoxy-1,5-imino-D-glucitol compounds” (Academia Sinica, priority 2008, dated 2013)
